Laboratory results taken from article PMC2673211, “Nitric oxide activates ATP-sensitive potassium channels in mammalian sensory neurons: action by direct S-nitrosylation” (Molecular Pain, 2009).

Target: T1, KATP channels in large DRG neurons (Rattus norvegicus, UniProt P70673+Q09429)
T1 construct: native KATP channels in large DRG neurons; endogenous in cells; host or cells: acutely dissociated large-diameter neurons from rat L4/L5 dorsal root ganglia (sham-operated or spinal nerve ligated animals)
T1 sequence (Q09429 whole entry): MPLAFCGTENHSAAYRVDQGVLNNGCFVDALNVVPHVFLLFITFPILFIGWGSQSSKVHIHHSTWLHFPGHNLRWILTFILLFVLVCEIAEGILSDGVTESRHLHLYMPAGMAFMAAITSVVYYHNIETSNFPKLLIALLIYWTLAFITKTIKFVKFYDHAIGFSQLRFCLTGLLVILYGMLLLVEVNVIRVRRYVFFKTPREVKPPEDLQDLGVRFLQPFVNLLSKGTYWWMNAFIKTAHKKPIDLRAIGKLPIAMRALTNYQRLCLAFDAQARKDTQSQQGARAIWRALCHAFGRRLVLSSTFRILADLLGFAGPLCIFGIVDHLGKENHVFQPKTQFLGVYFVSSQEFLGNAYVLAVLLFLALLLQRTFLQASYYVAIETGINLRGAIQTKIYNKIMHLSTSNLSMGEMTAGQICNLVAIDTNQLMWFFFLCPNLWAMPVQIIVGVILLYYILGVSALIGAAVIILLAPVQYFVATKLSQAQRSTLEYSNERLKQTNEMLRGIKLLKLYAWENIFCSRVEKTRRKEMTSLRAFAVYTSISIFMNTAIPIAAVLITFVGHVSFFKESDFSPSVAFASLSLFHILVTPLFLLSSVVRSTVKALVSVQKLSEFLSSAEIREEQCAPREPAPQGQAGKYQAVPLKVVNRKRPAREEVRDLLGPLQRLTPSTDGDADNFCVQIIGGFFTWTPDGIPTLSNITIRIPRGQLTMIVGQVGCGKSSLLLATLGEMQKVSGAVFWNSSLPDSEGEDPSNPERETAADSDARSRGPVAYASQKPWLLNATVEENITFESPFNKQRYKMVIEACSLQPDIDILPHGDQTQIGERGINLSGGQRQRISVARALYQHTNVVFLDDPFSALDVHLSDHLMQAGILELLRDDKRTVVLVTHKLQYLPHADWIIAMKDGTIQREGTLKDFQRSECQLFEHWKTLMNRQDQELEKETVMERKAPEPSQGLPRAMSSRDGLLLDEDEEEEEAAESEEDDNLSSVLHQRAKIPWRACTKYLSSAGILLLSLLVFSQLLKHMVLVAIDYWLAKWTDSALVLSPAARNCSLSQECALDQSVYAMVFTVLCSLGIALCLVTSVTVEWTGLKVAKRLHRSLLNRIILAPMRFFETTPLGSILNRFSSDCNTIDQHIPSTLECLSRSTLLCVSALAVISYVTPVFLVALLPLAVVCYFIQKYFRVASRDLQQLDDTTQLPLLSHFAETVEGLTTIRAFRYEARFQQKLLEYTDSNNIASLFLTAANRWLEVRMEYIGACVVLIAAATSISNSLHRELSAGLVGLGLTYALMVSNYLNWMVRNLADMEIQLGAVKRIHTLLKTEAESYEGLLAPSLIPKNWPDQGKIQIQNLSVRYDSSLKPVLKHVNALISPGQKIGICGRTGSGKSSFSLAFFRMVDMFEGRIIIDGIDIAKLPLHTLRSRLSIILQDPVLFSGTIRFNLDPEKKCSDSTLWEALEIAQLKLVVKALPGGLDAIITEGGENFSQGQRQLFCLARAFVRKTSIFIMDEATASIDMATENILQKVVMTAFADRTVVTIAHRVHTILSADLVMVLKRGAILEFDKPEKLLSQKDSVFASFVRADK
T1 sequence (P70673 whole entry): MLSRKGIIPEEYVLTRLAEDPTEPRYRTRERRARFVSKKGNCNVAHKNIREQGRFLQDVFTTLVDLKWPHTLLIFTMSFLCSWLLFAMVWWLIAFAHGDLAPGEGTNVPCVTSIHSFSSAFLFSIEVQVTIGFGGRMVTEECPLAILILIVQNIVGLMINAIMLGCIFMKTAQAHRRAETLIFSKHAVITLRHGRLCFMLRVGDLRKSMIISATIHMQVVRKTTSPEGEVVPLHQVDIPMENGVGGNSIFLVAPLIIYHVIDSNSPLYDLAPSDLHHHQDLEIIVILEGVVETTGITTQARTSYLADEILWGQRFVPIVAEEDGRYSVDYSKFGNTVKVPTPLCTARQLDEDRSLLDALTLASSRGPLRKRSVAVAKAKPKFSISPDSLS
Experiment: Excised inside-out (cell-free) patch-clamp recording of KATP channel activity
Type: biochemical
Conditions: SS neurons; for direct effect on KATP channel in inside-out patches: n = 6
From the text: We harvested control (L4 and L5) or axotomized (L5) ganglia, from control (SS) or hyperalgesic rats (SNL) respectively, between the 17th and 28th postoperative days. We sacrificed animals by decapitation under deep isoflurane anesthesia, excised ganglia through a lumbar incision, and at the same time confirmed accuracy of initial surgery.
For patch-clamp recordings, we placed excised DRG into separate 35 mm Petri dishes containing cold, oxygenated, Hanks Balanced Salt Solution (Gibko, Invitrogen, Grand Islan, NY), and minced them with iris scissors. We dissociated ganglia enzymatically in a solution containing 0.25 ml 0.05% w:v liberase blendzyme 2 (Roche Diagnostics Corp., Indianapolis, IN) and 0.25 ml DMEM/F12 with glutaMAX (Dulbecco's modified Eagle's medium F12; Gibco, Invitrogen Corp., Carlsbad, CA) in an incubator at 37°C for 30 min. We then removed the supernatant after centrifugation and re-incubated cells at 37°C for another 30 min in 0.2 ml 0.0625% trypsin (Sigma, St. Louis, MO) and 0.0125% deoxyribonuclease 1 (150,000 U, Sigma, St. Louis, MO) in 0.25 ml DMEM. We then isolated cells by centrifugation (600 rpm for 5 min) after adding 0.25 ml trypsin inhibitor 0.1% w:v (Sigma St. Louis, MO), and re-suspended them in a culture medium consisting of 0.5 mM glutamine, 0.02 mg/ml gentamicin (Gibco, Invitrogen Corp., Carlsbad, CA), 100 ng/ml nerve growth factor 7S (Alomone Labs, Jerusalem, Israel), 2% (vol/vol) B-27 supplement (Gibco, Invitrogen Corp., Carlsbad, CA), and 98% (vol/vol) neural basal medium A (Gibco, Invitrogen Corp., Carlsbad, CA). Finally, we plated cells onto poly-l-lysine-coated 12-mm glass coverslips (Deutsche Spiegelglas; Carolina Biologic Supply, Burlington, NC), kept them in a humidified incubator at 37°C with 95% air and 5% CO2, and studied them within 3–8 h of dissociation.
We visualized plated neurons using an inverted Nikon Diaphot 300 microscope with Hoffman modulation optic system. We selected only large diameter neuronal somata (≥ 40 μm in diameter) because we have previously shown that only these develop KATP current alterations, as well as changes indicative of increased excitability after painful-like nerve injury by SNL [74]. Large neuronal somata, roughly correspond to large, myelinated Aβ fibers.
We recorded current passing through single channels in inside-out or cell-attached patch configurations. In cell-attached patches, both bath and pipette (extracellular) solutions were composed of the following: 140 mM KCl, 10 mM HEPES, 5.5 mM dextrose, and 1 mM EGTA. In inside-out patches, the bath (intracellular) solution contained 140 mM KCl, 1.2 mM MgCl2, 10 mM HEPES, 1.5 mM EGTA and 5.5 mM dextrose. The pipette (extracellular) solution was of the same composition as that used in cell-attached recordings. The pH of all solutions was adjusted to 7.4 with KOH. Osmolality was adjusted approximately to 300 mOsm/l by adding sucrose if necessary. We pulled patch micropipettes from borosilicate glass capillaries using a Flaming/Brown micropipette puller, model P-97 (Sutter, San Rafael, CA) and flame polished them with a microforge polisher (Narishige, Tokyo, Japan) prior to use. Their resistance ranged between 3 and 6 MΩ when filled with the internal solution, and placed into the recording solutions.
We recorded single channel currents at room temperature (20–25°C) using an Axon CNS Multiclamp 700B amplifier, digitized them using an analog-to-digital converter (Axon CNS DigiData 1440A; Axon Instruments, Foster, CA), and stored them into a PC. Sampling frequency of single-channel data was 5 KHz with a low-pass filter (1 KHz). We used pClamp version 10.2 software (Axon Instruments) for data acquisition and analysis. We applied a conventional 50% current amplitude threshold level criterion to determine open events. Channel open probability (Po) was determined from the ratios of the area under the peaks in the amplitude histograms fitted by a Gaussian distribution. […]

## S-nitroso-N-acetylpenicillamine [SNAP]
SNAP 100 μM in the presence of 10 μM [ATP]i
  direct effect on KATP channel in inside-out patches: did not produce any significant channel activation
SNAP 100 μM in the presence of 1 mM [ATP]i
  direct effect on KATP channel in inside-out patches: gradually activated
Patch exposure to 100 μM SNAP, n = 5
  baseline current amplitude and conductance of channels: remained unchanged
